Source: patent publication US8822449B2, “Substituted aminoindanes and analogs thereof, and the pharmaceutical use thereof” (Sanofi, priority 2008, dated 2014)

Each compound was assayed against T1, sodium-proton exchanger of subtype 3 (NHE3) (Homo sapiens, UniProt P48764) (assay: Recovery of intracellular pH (pHi) after acidification in LAP1 cells stably expressing NHE3 (BCECF fluorescence, FLIPR)). Conditions: Activity range (inhibitory effect on NHE3), LAP1 cells stably expressing NHE3; pH recovery after acidification; range 1 is % inhibition at 10 μM.
T1 construct: expressed in transfected cells
T1 sequence (P48764 26-834): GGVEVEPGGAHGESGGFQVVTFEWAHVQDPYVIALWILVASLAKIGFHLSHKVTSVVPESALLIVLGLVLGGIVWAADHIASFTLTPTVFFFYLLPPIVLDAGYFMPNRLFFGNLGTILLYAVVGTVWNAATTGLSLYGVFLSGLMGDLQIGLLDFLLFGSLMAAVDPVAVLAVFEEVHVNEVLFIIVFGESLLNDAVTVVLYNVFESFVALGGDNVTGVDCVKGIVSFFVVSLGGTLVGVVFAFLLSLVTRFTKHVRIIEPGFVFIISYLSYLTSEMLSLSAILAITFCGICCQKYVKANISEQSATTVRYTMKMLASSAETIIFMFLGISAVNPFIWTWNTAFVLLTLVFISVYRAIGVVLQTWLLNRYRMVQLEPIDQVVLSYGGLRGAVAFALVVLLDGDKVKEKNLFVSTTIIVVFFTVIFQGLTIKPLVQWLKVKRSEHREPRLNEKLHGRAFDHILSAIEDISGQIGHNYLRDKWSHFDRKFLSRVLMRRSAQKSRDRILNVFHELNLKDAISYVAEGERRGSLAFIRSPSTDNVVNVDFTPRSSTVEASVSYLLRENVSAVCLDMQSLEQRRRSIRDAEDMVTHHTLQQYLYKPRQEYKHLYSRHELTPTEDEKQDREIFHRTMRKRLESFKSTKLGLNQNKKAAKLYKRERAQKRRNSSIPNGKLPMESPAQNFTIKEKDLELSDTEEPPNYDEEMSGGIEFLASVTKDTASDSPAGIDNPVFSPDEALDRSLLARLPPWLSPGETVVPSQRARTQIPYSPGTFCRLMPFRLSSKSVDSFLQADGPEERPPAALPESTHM
Format: cell-based

SMILES | IC50 [nM]
CC(=O)Nc1cccc(O[C@H]2c3cc(Cl)cc(Cl)c3C[C@@H]2N2C[C@H]3CC[C@@H](C2)N3)c1 [Example 664, N-[3-(trans-(1S,2S)-4,6-dichloro-2-3,8-diazabicyclo[3.2.1]oct-3-ylindan-1-yloxy)phenyl]acetamide] | < 1000

Same assay, conditions: LAP1 cells stably expressing NHE3; pH recovery after acidification; range 1 is % inhibition at 10 μM; read-out: Activity range (inhibitory effect on NHE3)

inhibition at 10 µM [%] | IC50 [nM] | SMILES
20 to 50 |  | N[C@H]1CCCN([C@H]2CCc3ccccc3[C@@H]2Oc2cccc(Cl)c2)C1 (racemic) [Example 165, (S)-1-[rac-trans-(1,2)-1-(3-chlorophenoxy)-1,2,3,4-tetrahydronaphthalen-2-yl]piperidin-3-ylamine]
 | < 1000 | CC(=O)Nc1cccc(O[C@H]2c3cc(Cl)cc(Cl)c3C[C@@H]2N2CCNCC2)c1 [Example 665, N-[3-(trans-(1S,2S)-4,6-dichloro-2-piperazin-1-ylindan-1-yloxy)phenyl]acetamide]
20 to 50 |  | Cc1ccc(O[C@H]2c3ccccc3CC[C@@H]2N2CCC[C@@H](N)C2)c(Br)c1 (racemic) [Example 35, (R)-1-[rac-trans-(1,2)-1-(2-bromo-4-methylphenoxy)-1,2,3,4-tetrahydronaphthalen-2-yl]piperidin-3-ylamine]
 | < 1000 | N#Cc1ccc(O[C@H]2c3ccccc3CC[C@@H]2N2CCC[C@@H](N)C2)cc1F (racemic) [Example 510, 4-[rac-trans-(1,2)-2-((R)-3-aminopiperidin-1-yl)-1,2,3,4-tetrahydronaphthalen-1-yloxy]-2-fluorobenzonitrile]
20 to 50 |  | N[C@H]1CCCN([C@H]2CCc3ccccc3[C@@H]2Oc2ccc(N3C(=O)CCC3=O)cc2)C1 (racemic) [Example 328, 1-{4-[rac-trans-(1,2)-2-((S)-3-aminopiperidin-1-yl)-1,2,3,4-tetrahydronaphthalen-1-yloxy]phenyl}pyrrolidine-2,5-dione]
 | 1000 to 10000 | O=C1CNC(=O)N1c1ccc(F)c(O[C@H]2c3cc(Cl)cc(F)c3C[C@@H]2N2CC[C@@H](O)C2)c1 [Example 421, 3-{3-[(1S,2S)-6-chloro-4-fluoro-2-((R)-3-hydroxypyrrolidin-1-yl)indan-1-yloxy]-4-fluorophenyl}imidazolidine-2,4-dione]
 | < 1000 | CS(=O)(=O)c1ccc(O[C@H]2c3cc(Cl)cc(Cl)c3C[C@@H]2N2CCCNCC2)cc1 [Example 298, 1-[trans-(1S,2S)-4,6-dichloro-1-(4-methanesulfonylphenoxy)indan-2-yl]-[1,4]diazepane]
20 to 50 |  | COC(=O)c1ccc(O[C@H]2c3ccccc3CC[C@@H]2N2CCC[C@@H](N)C2)c(Cl)c1 (racemic) [Example 513, 4-[rac-trans-(1,2)-2-((R)-3-aminopiperidin-1-yl)-1,2,3,4-tetrahydronaphthalen-1-yloxy]-3-chlorobenzoic acid methyl ester]
 | 1000 to 10000 | CC(=O)Nc1cccc(O[C@H]2c3cccc(C)c3C[C@@H]2N2CCCC2)c1 (racemic) [Example 653, N-[3-(rac-trans-(1,2)-4-methyl-2-pyrrolidin-1-ylindan-1-yloxy)phenyl]acetamide]
20 to 50 |  | O=C(O)c1ccc(O[C@H]2c3ccccc3C[C@@H]2CN2CCCC2)cc1Cl (racemic) [Example 390, 2-chloro-4-(2-pyrrolidin-1-ylmethylindan-1-yloxy)benzoic acid]
 | 1000 to 10000 | CCN(CC)[C@@H]1Cc2ccccc2[C@H]1Oc1cccc(NC(N)=O)c1 (racemic) [Example 212, [3-(rac-trans-(1,2)-2-diethylaminoindan-1-yloxy)phenyl]-urea]
20 to 50 |  | c1ccc2c(c1)CC[C@H](N1CCOCC1)[C@H]2Oc1ccc2ccncc2c1 (racemic) [Example 588, 7-(rac-trans-(1,2)-2-morpholin-4-yl-1,2,3,4-tetrahydronaphthalen-1-yloxy)isoquinoline]
20 to 50 |  | Cc1nc(C)c(-c2ccc(O[C@H]3c4cc(Cl)cc(Cl)c4C[C@@H]3N3CC[C@@H](O)C3)cc2)s1 [Example 125, (R)-1-{trans-(1S,2S)-4,6-dichloro-1-[4-(2,4-dimethyl-thiazol-5-yl)phenoxy]indan-2-yl}pyrrolidin-3-ol]
20 to 50 |  | COc1cc(O[C@H]2c3ccccc3CC[C@@H]2N2CCC[C@H](N)C2)ccc1Br (racemic) [Example 173, (S)-1-[rac-trans-(1,2)-1-(4-bromo-3-methoxyphenoxy)-1,2,3,4-tetrahydronaphthalen-2-yl]piperidin-3-ylamine]
20 to 50 |  | N[C@@H]1CCCN([C@H]2CCc3ccccc3[C@@H]2Oc2cnc3ccccc3c2)C1 (racemic) [Example 87, (R)-1-[rac-trans-(1,2)-1-(quinolin-3-yloxy)-1,2,3,4-tetrahydronaphthalen-2-yl]piperidin-3-ylamine]
 | 1000 to 10000 | CC(=O)Nc1cccc(O[C@H]2c3cc(Cl)cc(Cl)c3C[C@@H]2N2CC[C@@H](CO)C2)c1 [Example 695, N-{3-[trans-(1S,2S)-4,6-dichloro-2-((R)-3-hydroxymethylpyrrolidin-1-yl)indan-1-yloxy]phenyl}acetamide]
 | < 1000 | O=c1[nH]ccn1-c1ccc(O[C@H]2c3cc(Cl)cc(Cl)c3C[C@@H]2N2CC[C@@H](O)C2)cc1 [Example 325, 1-{4-[(1S,2S)-4,6-dichloro-2-((R)-3-hydroxypyrrolidin-1-yl)indan-1-yloxy]phenyl}-1,3-dihydroimidazol-2-one]
20 to 50 |  | N[C@H]1CCCN([C@H]2CCc3ccccc3[C@@H]2Oc2ccc(Br)cc2-c2cc[nH]n2)C1 (racemic) [Example 203, (S)-1-{rac-trans-(1,2)-1-[4-bromo-2-(1H-pyrazol-3-yl)phenoxy]-1,2,3,4-tetrahydronaphthalen-2-yl}piperidin-3-ylamine]
20 to 50 |  | N#Cc1ccc(-c2ccc(O[C@H]3c4ccccc4CC[C@@H]3N3CCC[C@@H](N)C3)cc2)cc1 (racemic) [Example 517, 4′-[rac-trans-(1,2)-2-((R)-3-aminopiperidin-1-yl)-1,2,3,4-tetrahydronaphthalen-1-yloxy]-biphenyl-4-carbonitrile]
 | 1000 to 10000 | N[C@@H]1CCCN([C@H]2CCc3ccccc3[C@@H]2Oc2ccc(N3C(=O)CCC3=O)cc2)C1 (racemic) [Example 326, 1-{4-[rac-trans-(1,2)-2-((R)-3-aminopiperidin-1-yl)-1,2,3,4-tetrahydronaphthalen-1-yloxy]phenyl}pyrrolidine-2,5-dione]
 | < 1000 | Cc1cc(=O)cc(C)n1-c1ccc(O[C@H]2c3cc(Cl)cc(Cl)c3C[C@@H]2N2CC[C@@H](O)C2)c(F)c1 [Example 324, 1-{4-[(1S,2S)-4,6-dichloro-2-((R)-3-hydroxypyrrolidin-1-yl)indan-1-yloxy]-3-fluorophenyl}-2,6-dimethyl-1H-pyridin-4-one]
 | 1000 to 10000 | N#Cc1ccc(O[C@@H]2c3ccccc3C[C@H]2N2CCC[C@@H](N)C2)c(Cl)c1 (racemic) [Example 523, 4-[rac-trans-(1,2)-2-((R)-3-aminopiperidin-1-yl)indan-1-yloxy]-3-chlorobenzonitrile]
 | 1000 to 10000 | N[C@H]1CCCN([C@@H]2Cc3ccccc3[C@H]2Oc2cccc3ncccc23)C1 (racemic) [Example 194, (S)-1-[rac-trans-(1,2)-1-(quinolin-5-yloxy)indan-2-yl]piperidin-3-ylamine]
 | 1000 to 10000 | NS(=O)(=O)c1ccc(O[C@@H]2c3ccccc3C[C@H]2NC2CC2)c(F)c1 (racemic) [Example 703, 4-(rac-trans-(1,2)-2-Cyclopropylamino-indan-1-yloxy)-3-fluoro-benzenesulfonamide]
 | < 1000 | CS(=O)(=O)c1ccc(O[C@H]2c3cc(Cl)cc(Cl)c3C[C@@H]2N2CCC3(CCNC3)C2)cc1 (mixture of isomers) [Example 378, 2-[trans-(1S,2S)-4,6-dichloro-1-(4-methanesulfonylphenoxy)indan-2-yl]-2,7-diaza-spiro[4.4]nonane]
 | 1000 to 10000 | CN(C)Cc1cccc(O[C@@H]2c3ccccc3C[C@H]2N2CCC[C@H](N)C2)c1 (racemic) [Example 167, (S)-1-[rac-trans-(1,2)-1-(3-dimethylaminomethylphenoxy)indan-2-yl]piperidin-3-ylamine]
 | 1000 to 10000 | Cc1cc(O[C@H]2c3cc(Cl)cc(F)c3C[C@@H]2N2CCCC2)ccc1S(C)(=O)=O (racemic) [Example 291, 1-[rac-trans-(1,2)-6-chloro-4-fluoro-1-(4-methanesulfonyl-3-methylphenoxy)indan-2-yl]pyrrolidine]
20 to 50 |  | CN(C)C[C@H]1Cc2c(Cl)cc(Cl)cc2[C@@H]1Oc1ccc(S(C)(=O)=O)cc1 (racemic) [Example 217, [rac-trans-(1,2)-4,6-dichloro-1-(4-methanesulfonylphenoxy)indan-2-ylmethyl]dimethylamine]

SMILES | inhibition at 10 µM [%] | IC50 [nM]
N#Cc1ccc(O[C@H]2c3ccccc3C[C@@H]2CN2CCCC2)cc1Cl (racemic) [Example 391, 2-chloro-4-(2-pyrrolidin-1-ylmethylindan-1-yloxy)benzonitrile] | 20 to 50 | 
